# Test results from patent publication US12162890B2 (Novartis AG, priority 2015, dated 2024).
# Biological target: HEK293 cells with stable expression of the GRIN1 gene and tetracycline-inducible expression of the GRIN2B gene (NMDA receptor, NR2B) (Homo sapiens, UniProt Q13224)
# Experiment: Fluo-8 Ca2+ flux assay: reversal of Ro 25-6981-mediated suppression of the Ca2+ response to co-agonist (glutamate/glycine); also: test concentration or dose not given here
# Format: cell-based
# Conditions: reversal of the Ro 25-6981 suppression of the Ca2+ response to co-agonist (glutamate/glycine)
# HEK293 cells with stable expression of the GRIN1 gene and tetracycline-inducible expression of the GRIN2B gene (NMDA receptor, NR2B), sequence (Q13224 27-1484, other chains not shown): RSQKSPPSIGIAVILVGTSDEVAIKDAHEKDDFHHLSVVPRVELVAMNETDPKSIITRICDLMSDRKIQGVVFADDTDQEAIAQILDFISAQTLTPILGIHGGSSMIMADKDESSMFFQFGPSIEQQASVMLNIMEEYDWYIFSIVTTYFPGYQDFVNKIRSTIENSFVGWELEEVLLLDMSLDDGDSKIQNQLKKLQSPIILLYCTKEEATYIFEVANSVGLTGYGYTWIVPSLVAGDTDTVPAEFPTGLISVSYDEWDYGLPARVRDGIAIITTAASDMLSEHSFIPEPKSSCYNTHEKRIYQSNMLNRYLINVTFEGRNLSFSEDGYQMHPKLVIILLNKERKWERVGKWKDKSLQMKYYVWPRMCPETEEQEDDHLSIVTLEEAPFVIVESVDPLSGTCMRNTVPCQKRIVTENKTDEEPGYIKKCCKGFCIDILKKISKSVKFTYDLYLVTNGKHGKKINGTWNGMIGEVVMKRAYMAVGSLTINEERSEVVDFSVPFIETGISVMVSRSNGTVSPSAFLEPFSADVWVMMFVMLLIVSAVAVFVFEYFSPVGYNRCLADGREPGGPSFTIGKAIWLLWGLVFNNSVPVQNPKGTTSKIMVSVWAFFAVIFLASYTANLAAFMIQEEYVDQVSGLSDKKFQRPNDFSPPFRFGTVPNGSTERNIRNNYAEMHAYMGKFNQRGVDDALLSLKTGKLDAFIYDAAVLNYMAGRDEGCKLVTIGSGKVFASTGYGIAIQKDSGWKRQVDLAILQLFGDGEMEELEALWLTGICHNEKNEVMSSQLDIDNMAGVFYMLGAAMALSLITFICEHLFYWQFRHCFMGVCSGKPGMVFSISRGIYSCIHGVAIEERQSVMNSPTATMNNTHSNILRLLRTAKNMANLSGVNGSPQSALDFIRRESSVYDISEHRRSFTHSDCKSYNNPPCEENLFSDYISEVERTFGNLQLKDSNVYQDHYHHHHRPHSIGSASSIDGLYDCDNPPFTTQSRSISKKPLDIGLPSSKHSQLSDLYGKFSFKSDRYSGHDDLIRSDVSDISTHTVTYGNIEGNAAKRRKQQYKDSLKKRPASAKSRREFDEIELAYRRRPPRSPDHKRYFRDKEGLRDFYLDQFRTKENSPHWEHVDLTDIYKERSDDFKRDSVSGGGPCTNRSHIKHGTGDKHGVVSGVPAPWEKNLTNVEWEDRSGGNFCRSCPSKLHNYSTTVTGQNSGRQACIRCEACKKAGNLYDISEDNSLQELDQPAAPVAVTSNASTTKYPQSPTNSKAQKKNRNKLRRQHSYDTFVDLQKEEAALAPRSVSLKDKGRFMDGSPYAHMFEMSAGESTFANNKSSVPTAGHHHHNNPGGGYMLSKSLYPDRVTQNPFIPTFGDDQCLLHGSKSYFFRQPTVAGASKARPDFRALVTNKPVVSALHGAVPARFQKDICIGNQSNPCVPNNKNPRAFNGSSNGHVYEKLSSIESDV
row,SMILES,Response Recovered (%)
1,"O=C(Cn1ccc2scc(-c3ccc(F)c(Cl)c3)c2c1=O)N1CC(F)(CF)C1 [Example 81, 3-(3-chloro-4-fluorophenyl)-5-(2-(3-fluoro-3-(fluoromethyl)azetidin-1-yl)-2-oxoethyl)thieno[3,2-c]pyridin-4(5H)-one]",140%
2,"O=C(Cn1ccc2scc(-c3ccc(Cl)c(Cl)c3)c2c1=O)N1CC(F)(CF)C1 [Example 82, 3-(3,4-dichlorophenyl)-5-(2-(3-fluoro-3-(fluoromethyl)azetidin-1-yl)-2-oxoethyl)thieno[3,2-c]pyridin-4(5H)-one]",140%
3,"O=C(Cn1ccc2scc(-c3ccc(F)c(C(F)(F)F)c3)c2c1=O)N1CC(F)(CF)C1 [Example 83, 5-(2-(3-fluoro-3-(fluoromethyl)azetidin-1-yl)-2-oxoethyl)-3-(4-fluoro-3-(trifluoromethyl)phen-yl)thieno[3,2-c]pyridin-4(5H)-one]",140%
4,"Cc1cc(-c2csc3ccn(CC(=O)N4CC(C)(F)C4)c(=O)c23)cnc1Cl [Example 84, 3-(6-chloro-5-methylpyridin-3-yl)-5-(2-(3-fluoro-3-methylazetidin-1-yl)-2-oxoethyl)thieno[3,2-c]pyridin-4(5H)-one]",39%
5,"CCC1(F)CN(C(=O)Cn2ccc3scc(-c4cnc(Cl)c(C)c4)c3c2=O)C1 [Example 85, 3-(6-chloro-5-methylpyridin-3-yl)-5-(2-(3-ethyl-3-fluoroazetidin-1-yl)-2-oxoethyl)thieno[3,2-c]pyridin-4(5H)-one]",16%
6,"Cc1cc(-c2csc3ccn(CC(=O)N4CC(F)(CF)C4)c(=O)c23)cnc1Cl [Example 86, 3-(6-chloro-5-methylpyridin-3-yl)-5-(2-(3-fluoro-3-(fluoromethyl)azetidin-1-yl)-2-oxoethyl)thieno[3,2-c]pyridin-4(5H)-one]",17%
7,"Cc1cc(-c2csc3ccn(CC(=O)N4CC(C)(F)C4)c(=O)c23)cnc1F [Example 87, 5-(2-(3-fluoro-3-methylazetidin-1-yl)-2-oxoethyl)-3-(6-fluoro-5-methylpyridin-3-yl)thieno[3,2-c]pyridin-4(5H)-one]",−4.2%
8,"CCC1(F)CN(C(=O)Cn2ccc3scc(-c4cnc(F)c(C)c4)c3c2=O)C1 [Example 88, 5-(2-(3-ethyl-3-fluoroazetidin-1-yl)-2-oxoethyl)-3-(6-fluoro-5-methylpyridin-3-yl)thieno[3,2-c]pyridin-4(5H)-one]",20%
9,"Cc1cc(-c2csc3ccn(CC(=O)N4CC(F)(CF)C4)c(=O)c23)cnc1F [Example 89, 5-(2-(3-fluoro-3-(fluoromethyl)azetidin-1-yl)-2-oxoethyl)-3-(6-fluoro-5-methylpyridin-3-yl)thieno[3,2-c]pyridin-4(5H)-one]",16%
10,"Cc1ncc(-c2csc3ccn(CC(=O)N4CC(C)(F)C4)c(=O)c23)cc1Cl [Example 90, 3-(5-chloro-6-methylpyridin-3-yl)-5-(2-(3-fluoro-3-methylazetidin-1-yl)-2-oxoethyl)thieno[3,2-c]pyridin-4(5H)-one]",75%
11,"CCC1(F)CN(C(=O)Cn2ccc3scc(-c4cnc(C)c(Cl)c4)c3c2=O)C1 [Example 91, 3-(5-chloro-6-methylpyridin-3-yl)-5-(2-(3-ethyl-3-fluoroazetidin-1-yl)-2-oxoethyl)thieno[3,2-c]pyridin-4(5H)-one]",74%
12,"Cc1ncc(-c2csc3ccn(CC(=O)N4CC(F)(CF)C4)c(=O)c23)cc1Cl [Example 92, 3-(5-chloro-6-methylpyridin-3-yl)-5-(2-(3-fluoro-3-(fluoromethyl)azetidin-1-yl)-2-oxoethyl)thieno[3,2-c]pyridin-4(5H)-one]",70%
13,"CN(CC(F)(F)F)C(=O)Cn1ccc2scc(-c3ccc(F)c(Cl)c3)c2c1=O [Example 93, 2-(3-(3-chloro-4-fluorophenyl)-4-oxothieno[3,2-c]pyridin-5(4H)-yl)-N-methyl-N-(2,2,2-trifluoroethyl)acetamide]",4.1%
14,"CC1(N)CN(C(=O)Cn2ccc3scc(-c4ccc(Cl)c(Cl)c4)c3c2=O)C1 [Example 94, 5-(2-(3-amino-3-methylazetidin-1-yl)-2-oxoethyl)-3-(3,4-dichlorophenyl)thieno[3,2-c]pyridin-4(5H)-one]",3.1%
15,CC1(N)CN(C(=O)Cn2ccc3scc(-c4ccc(F)c(Cl)c4)c3c2=O)C1 [Example 95],1%
16,"CC1(N)CN(C(=O)Cn2ccc3scc(-c4ccc(F)c(C(F)(F)F)c4)c3c2=O)C1 [Example 96, 5-(2-(3-amino-3-methylazetidin-1-yl)-2-oxoethyl)-3-(4-fluoro-3-(trifluoromethyl)phenyl)thieno[3,2-c]pyridin-4(5H)-one]",43%

row,SMILES,Response Recovered (%)
1,"O=C(Cn1ccc2scc(-c3ccc(F)c(Cl)c3)c2c1=O)N1CC2(CCN2)C1 [Example 97, 3-(3-chloro-4-fluorophenyl)-5-(2-oxo-2-(1,6-diazaspiro[3.3]heptan-6-yl)ethyl)thieno[3,2-c]pyridin-4(5H)-one 2,2,2-trifluoroacetate]",2.8%
2,"O=C(Cn1cc(Br)c2scc(-c3ccc(Cl)c(C(F)(F)F)c3)c2c1=O)N1CCCC1 [Example 98, 7-bromo-3-(4-chloro-3-(trifluoromethyl)phenyl)-5-(2-oxo-2-(pyrrolidin-1-yl)ethyl)thieno[3,2-c]pyridin-4(5H)-one]",40%
3,"N#Cc1cn(CC(=O)N2CCCC2)c(=O)c2c(-c3ccc(Cl)c(C(F)(F)F)c3)csc12 [Example 99, 3-(4-chloro-3-(trifluoromethyl)phenyl)-4-oxo-5-(2-oxo-2-(pyrrolidin-1-yl)ethyl)-4,5-dihydrothieno[3,2-c]pyridine-7-carbonitrile]",37%
4,"N#Cc1cn(CC(=O)N2CCCC2)c(=O)c2c(-c3ccc(F)c(C(F)(F)F)c3)csc12 [Example 100, 3-(4-fluoro-3-(trifluoromethyl)phenyl)-4-oxo-5-(2-oxo-2-(pyrrolidin-1-yl)ethyl)-4,5-dihydrothieno[3,2-c]pyridine-7-carbonitrile]",34%
5,"O=C(Cn1cc(C2CC2)c2scc(-c3ccc(Cl)c(C(F)(F)F)c3)c2c1=O)N1CCCC1 [Example 101, 3-(4-chloro-3-(trifluoromethyl)phenyl)-7-cyclopropyl-5-(2-oxo-2-(pyrrolidin-1-yl)ethyl)thieno[3,2-c]pyridin-4(5H)-one]",29%
6,"O=C(Cn1cc(-c2ccccc2)c2scc(-c3ccc(Cl)c(C(F)(F)F)c3)c2c1=O)N1CCCC1 [Example 102, 3-(4-chloro-3-(trifluoromethyl)phenyl)-5-(2-oxo-2-(pyrrolidin-1-yl)ethyl)-7-phenylthieno[3,2-c]pyridin-4(5H)-one]",23%
7,"O=C(Cn1cc(-c2ccncc2)c2scc(-c3ccc(Cl)c(C(F)(F)F)c3)c2c1=O)N1CCCC1 [Example 103, 3-(4-chloro-3-(trifluoromethyl)phenyl)-5-(2-oxo-2-(pyrrolidin-1-yl)ethyl)-7-(pyridin-4-yl)thieno[3,2-c]pyridin-4(5H)-one]",32%
8,"O=C(Cn1cc(-c2ccccc2)c2scc(-c3ccc(F)c(C(F)(F)F)c3)c2c1=O)N1CCCC1 [Example 104, 3-(4-fluoro-3-(trifluoromethyl)phenyl)-5-(2-oxo-2-(pyrrolidin-1-yl)ethyl)-7-phenylthieno[3,2-c]pyridin-4(5H)-one]",22%
9,"O=C(Cn1cc(-c2ccncc2)c2scc(-c3ccc(F)c(C(F)(F)F)c3)c2c1=O)N1CCCC1 [Example 105, 3-(4-fluoro-3-(trifluoromethyl)phenyl)-5-(2-oxo-2-(pyrrolidin-1-yl)ethyl)-7-(pyridin-4-yl)thieno[3,2-c]pyridin-4(5H)-one]",22%
10,"Cc1cn(CC(=O)N2CCCC2)c(=O)c2c(-c3ccc(Cl)c(C(F)(F)F)c3)csc12 [Example 106, 3-(4-chloro-3-(trifluoromethyl)phenyl)-7-methyl-5-(2-oxo-2-(pyrrolidin-1-yl)ethyl)thieno[3,2-c]pyridin-4(5H)-one]",76%
11,"Cc1cn(CC(=O)N2CCCC2)c(=O)c2c(-c3ccc(F)c(C(F)(F)F)c3)csc12 [Example 107, 3-[4-fluoro-3-(trifluoromethyl)phenyl]-7-methyl-5-[2-oxo-2-(pyrrolidin-1-yl)ethyl]-4H,5H-thieno[3,2-c]pyridin-4-one]",63%
12,"N=C(NO)c1cn(CC(=O)N2CCCC2)c(=O)c2c(-c3ccc(F)c(C(F)(F)F)c3)csc12 [Example 108, 3-(4-fluoro-3-(trifluoromethyl)phenyl)-N-hydroxy-4-oxo-5-(2-oxo-2-(pyrrolidin-1-yl)ethyl)-4,5-dihydrothieno[3,2-c]pyridine-7-carboximidamide]",64%
13,"O=C(Cn1cc(-c2ncon2)c2scc(-c3ccc(F)c(C(F)(F)F)c3)c2c1=O)N1CCCC1 [Example 109, 3-(4-fluoro-3-(trifluoromethyl)phenyl)-7-(1,2,4-oxadiazol-3-yl)-5-(2-oxo-2-(pyrrolidin-1-yl)ethyl)thieno[3,2-c]pyridin-4(5H)-one]",14%
14,"N=C(NO)c1cn(CC(=O)N2CCC(F)C2)c(=O)c2c(-c3ccc(F)c(C(F)(F)F)c3)csc12 (centres unmarked) [Example 110, 3-(4-fluoro-3-(trifluoromethyl)phenyl)-5-(2-(3-fluoropyrrolidin-1-yl)-2-oxoethyl)-N-hydroxy-4-oxo-4,5-dihydrothieno[3,2-c]pyridine-7-carboximidamide]",33%
15,"O=C(Cn1cc(CO)c2scc(-c3ccc(F)c(C(F)(F)F)c3)c2c1=O)N1CCC(F)C1 (centres unmarked) [Example 111, 3-(4-fluoro-3-(trifluoromethyl)phenyl)-5-(2-(3-fluoropyrrolidin-1-yl)-2-oxoethyl)-7-(hydroxymethyl)thieno[3,2-c]pyridin-4(5H)-one]",97%
16,"O=C(Cn1cc(CN2CCCC2)c2scc(-c3ccc(F)c(C(F)(F)F)c3)c2c1=O)N1CCC(F)C1 (centres unmarked) [Example 112, 3-(4-fluoro-3-(trifluoromethyl)phenyl)-5-(2-(3-fluoropyrrolidin-1-yl)-2-oxoethyl)-7-(pyrrolidin-1-ylmethyl)thieno[3,2-c]pyridin-4(5H)-one]",89%
